Patent US9365851B2, “Spalt-like transcription factor 4 (SALL4) and uses thereof” (National University of Singapore, priority 2011, dated 2016)

Assays:
PTEN promoter region = assay: ChIP-qPCR of H3 acetylation at the PTEN promoter in SNU-398 cells; format: cell-based, human; conditions: SNU-398, ChIP-qPCR
Description: (§1) FIGS. 9A-9E: The wild type peptide blocks SALL4 repression of PTEN. (9A) Flow cytometry analysis on SNU-398 cells treated with Pep-1 carrier peptide alone (top panel), wild type peptide alone (middle panel), or Pep-1 carrier+peptide (lower panel). […] (9B) Confocal images of the distribution of FITC-labeled peptide in SNU-398 cells treated as shown in (9A). (9C) The endogenous SALL4 interaction with HDAC is blocked by wild type (wt) but not scrambled (scr) peptide. SALL4 was immunoprecipitated from SNU-398 nuclear extracts (1×10^6 cells) pre-treated with wild type or scrambled peptides as indicated using an anti-SALL4 antibody. Immunoprecipitates were analyzed by Western blot using HDAC1 (top panel) or SALL4 (lower panel) antibodies. […] Equal amount of SALL4 protein was present in all samples. In Lane 4 (“10% input”), 10% of the amount of nuclear extract used in lanes 1-3 was subjected to Western blot analysis without immunoprecipitation. […] Enrichment with control IgG was set at 1.
Whether this peptide can reverse the repressive effect of SALL4 on its target genes was then tested. Pten was chosen as an example since it is one of genes implicated in SALL4-mediated leukemogenesis. In addition, it was previously reported that SALL4 and NuRD component HDAC2 shared the same binding site at a specific Pten promoter region identified by a ChIP assay. When SALL4 was overexpressed in 293T cells, an enrichment of SALL4 as well as HDAC2 but a decreased H3 acetylation at this binding site were observed, which was correlated with a decreased Pten mRNA expression. It is likely that SALL4 recruits the NuRD complex in repressing Pten expression. If this model of the role of wt peptide is correct, then it could compete with endogenous SALL4 in recruiting NuRD to the binding site on Pten promoter. […] SNU-398 cells were treated with Scr or wt peptide and then evaluated for the Pten mRNA expression, as well as the status of HDAC2 binding and H3 acetylation at the Pten promoter region.
Then tested was whether this peptide could reverse the repressive effect of SALL4 on its target genes. The focus was onPTEN, since it is implicated in SALL4-mediated leukemogenesis (Yang et al., Blood, 112:805-813 (2008); Lu et al., PLoS One, 4:e5577 (2009)). In addition, it was previously reported that SALL4 could specifically bind to the PTEN promoter region in a chromatin immunoprecipitation (ChIP) assay (Lu et al., PLoS One, 4:e5577 (2009)). […] To test this possibility, SNU-398 cells were treated with scrambled or wild type peptide and subsequently evaluated for PTEN expression and H3 acetylation at the SALL4 binding site at the PTEN promoter region. […]

[1] = system: SALL4 interaction with HDAC1; assay: Co-immunoprecipitation of endogenous SALL4 with HDAC1 after peptide treatment (SNU-398); format: binding, human; conditions: SNU-398, anti-SALL4 IP
Description: as §1
Furthermore, whether wt peptide can compete with endogenous SALL4 in interacting with HDAC1 was tested. SNU-398 cells were treated with wt or Scr peptides. […] This effect was not observed with the SNU-398 cells treated with Scr peptide and HDAC1 was still present in the endogenous SALL4 pull-down (FIG. 2).
Next tested was whether wild type peptide could compete for the interaction of endogenous SALL4 with HDAC1. SNU-398 cells were treated with wild type or scrambled peptides along with the peptide carrier Pep-1.

MCF7 cells = assay: Cell viability assay (MTT); format: cell-based; conditions: MCF7, 48-72 h
Procedure: Cell viability assay (MTT) (Invitrogen) was performed according to the manufacturer's instructions. Briefly—10000 cells were seeded in 100 ul medium in 96 well plates. The next day cells were treated as indicated on the figures. At the designated time after the treatment 20 ul of 5 mg/ml MTT solution was added to each well. After 3.5 h incubation at 37 C the medium was removed and the reaction was terminated with a solution of 4 mM HCl, 0.1% Nondet P-40 (NP40) all in isopropanol in dark on orbital shaker for […]. at room temperature. The absorbance was read at 590 nm with a reference filter of 620 nm in Spectromax M3 (ABI) spectrophotometer.
Multiple cell lines with or without SALL4 expression were chosen to test the biological effect(s) of this wt peptide. Wt or its control (Scr or Mut) peptide was delivered into tumor cells at various concentrations, and their effects on cells were evaluated at 48 or 72 hours post treatment by a MTT assay (Manufacture name). […] Since, as proposed herein, wt peptide can compete with SALL4 and release it from recruiting HDAC complex NuRD, the wt peptide would likely work as a HDAC inhibitor. Therefore, as a positive control, TSA, a broad HDAC inhibitor, was used in the same group of experiments along with the wt and Scr peptide.

Substance | H3 acetylation at the PTEN promoter region (PTEN promoter region; listed as Wild type peptide) | H3 acetylation at the PTEN promoter region (PTEN promoter region; listed as Wt) | H3 acetylation at the PTEN promoter region (PTEN promoter region; listed as wild type peptide) | interaction of endogenous SALL4 with HDAC1 [1] | cell viability (MCF7 cells) | cell viability (MCF7 cells; listed as wild type peptide) | H3 acetylation at the PTEN promoter region (PTEN promoter region) | interaction of endogenous SALL4 with HDAC1 ([1]; listed as scrambled peptide)
H-MSRRKQAKPQHI-OH [wt peptide, MSRRKQAKPQHI] | increased H3 acetylation | increased H3 acetylation | increased H3 acetylation markers | completely abrogated | decreased cell viability | displayed the same effect |  | 
Scr peptide: same 12 amino acids as the wt peptide, but in a scrambled sequence; negative control (SRMRQKIHPKIQ) [reference compound] |  |  |  | not observed | remained unaffected |  | not observed | does not affect the interaction
